Compound	melting point
COC(=N)N1CCC(c2n[nH]c3cc(F)ccc23)CC1	162 to 164 °C
CC(C)N(C(C)C)S(=O)(=O)NC(=O)c1nsc2ccc(-n3c(=O)cc(C(F)(F)F)n(C)c3=O)cc12	214 °C
Cn1c(COc2ccc(CC3SC(=O)NC3=O)cc2)nc2ccc(Oc3ccc(NC(=O)NC45CC6CC(CC(C6)C4)C5)cc3)cc21 (stereo unspecified)	164 to 167 °C
CC(C)(CO)c1cc(OS(C)(=O)=O)ccc1O	122 to 124 °C
CCOCCn1c(N2CCCN(CCC3(c4ccc(Cl)cc4)CCN(C(=O)c4cc(OC)c(OC)c(OC)c4)C3)CC2)nc2ccccc21 (stereo unspecified)	74 to 81 °C
COc1ccc(S(=O)(=O)N(CC(=O)NO)Cc2ccccc2)cc1	112 to 114 °C
Cn1cc(C2=C(c3csc4ccccc34)C(=O)NC2=O)c2ccccc21	238 to 241 °C
Cn1nc(Sc2cc(C(F)(F)F)ccc2C(=O)O)n(C)c1=O	211 °C
COC(=O)[C@H](/C=C/[C@H](Cc1ccccc1)NC(=O)OC(C)(C)C)Cc1ccccc1	84 to 85 °C
Cc1ccc(CC2(OCc3ccccc3)CCN(CC3Cc4cc(O)ccc4C3O)CC2)cc1 (stereo unspecified)	131 to 132 °C
CCOC(=O)c1n[nH]c(C(=O)OCC)c1C(O)c1ccc(Cl)cc1[N+](=O)[O-] (stereo unspecified)	60 °C
COc1ccc(-c2cc(NC(=O)Nc3ccc(Cl)cc3)on2)cc1	165 to 170 °C
CCOC(=O)c1nc2cc(Br)c(Br)cc2[nH]c1=O	235 to 236 °C
COC(=O)C1=C(C)NC(CC(=O)N2CCN(C3CC4CCC(C3)N4C(=O)OC(C)Cl)CC2)=C(C(=O)OC)C1c1c(Cl)cccc1Cl (stereo unspecified)	135 to 145 °C
CCNC(=O)c1sc(C)c(C)c1[Si](C)(C)C	77 to 80 °C
CC1(C)CC(=O)C(c2ccc(N)cc2Cl)C(=O)C1	218 to 219 °C
Cn1nc(Oc2ccc(Cl)c(O)c2)c(Cl)c1C(F)(F)F	106 to 108 °C
CCCCc1cn(-c2cccn2CC)c(=O)n1Cc1ccc(-c2ccccc2-c2nnn[nH]2)nc1	174 to 175 °C
CCCCOC(=O)CNC(=O)c1nc2ccc(Cl)cc2cc1OCc1ccccc1	121 to 123 °C
Cn1nnc(-c2[nH]c3ccccc3c2Cl)n1	197 to 199 °C
O=C(SCC(Cc1ccccc1)C(=O)O)c1ccccc1 (stereo unspecified)	99 to 100 °C
COc1cc(Cl)cc(COc2cccc(OCc3ccc4ccccc4n3)c2)c1OCC(=O)O	185 to 190 °C

Compound	melting point
CC(C)(C)c1nc(C=NO)ncc1O	205 to 220 °C
O=S(=O)(CCCl)CCC(F)(F)C(F)(F)C(F)(F)C(F)(F)C(F)(F)C(F)(F)F	104 to 106 °C
COc1c([N+](=O)[O-])cc(Br)c2c1C(=O)CC2	138 to 139 °C
Cc1cc(C2=CO[C@@](c3cc(Cl)cc(Cl)c3)(C(F)(F)F)C2)ccc1C(=O)NCC(=O)NCC(F)(F)F	120 to 155 °C
CC(Br)C(=O)c1cc2c(Cl)cccc2s1 (stereo unspecified)	104 to 106 °C
CCCCCN(CCC12CC3CC(CC(C3)C1)C2)C(=O)NCC(Cc1ccccc1)Cc1ccncc1 (stereo unspecified)	111 to 116 °C
NS(=O)(=O)c1ccc(F)c(C(O)CCl)c1 (stereo unspecified)	112 °C
CSc1cc2n(c(=O)n1)C(C)N=C2 (stereo unspecified)	221 to 222 °C
CCOC(=O)c1ccc(N(C)C)cc1C(=O)OCC	62 to 64 °C
Cc1ccc(-c2ccc(S(C)(=O)=O)cc2)n1-c1ccc(-c2ccoc2)c(Cl)c1	165 to 168 °C
CSc1ccc(C(=O)CC(=O)C(F)F)cc1	68 to 70 °C
CN=C(NC#N)NCCSCc1ccco1	78 to 82 °C
CCc1noc(C)c1-c1[nH]c2ccccc2c1C(=O)CCC(=O)O	98 to 110 °C
CC(C)(C)NC(=O)C(NC(C)(C)C)=C1CCCC1	80 to 83 °C
Nc1nc(C(=Cc2cccc3ccccc23)C(=O)O)cs1	220 °C
CCSc1nsc(NC(=O)NC)c1C(N)=O	205 °C
COc1ccc(S(=O)(=O)N2C(=O)C(c3ccccc3O)(N3CCC[C@H]3C(=O)N(C)C)c3cc(Cl)ccc32)c(OC)c1 (stereo partly specified)	143 °C
CC(=O)N1CCC(CC(=O)O)CC1	124 °C
O=Cc1ccc(CCBr)cc1	49 to 52 °C
COc1ccc(N2CCOCC2)c2sc(-c3nc4ccc(N(C)CC5CCOCC5)nc4[nH]3)nc12	190 to 195 °C
COC(=O)C#CC(=O)c1ccccc1	31 to 35 °C
COc1ccc(-c2ccc(-c3ccc(C)cc3)s2)s1	108 to 111 °C

Compound	melting point
COc1cc(COc2nn(-c3ccccc3)cc2/C=C2\SC(=O)N(C)C2=O)ccc1OCc1nc(-c2ccco2)oc1C	215 to 216 °C
CCOC(=O)C1=C(C)NC(C)=C(C(=O)OC)C1c1ccccc1/C=C/C(=O)OC(C)(C)C (stereo unspecified)	165 to 167 °C
O=C(O)Cc1cc(Cl)c(Cl)cc1[N+](=O)[O-]	119 to 120 °C
CCCCCCCNC(=O)n1nc(Oc2ncc(C(F)(F)F)cc2Cl)c(Cl)c1C	67 to 68 °C
CC=CC=CCOC(=O)C1=C(C)NC(C)=C(C(=O)OC)C1c1cccc(C(F)(F)F)c1 (stereo unspecified)	130 to 131 °C
CCOC(=O)COc1ccc(C=O)cc1NC(=O)c1ccc(OCCCCc2ccccc2)cc1	109 to 110 °C
COc1nc2cc(Cl)cc(CCCO)c2nc1OC	104 to 105 °C
COc1ccc(C(=O)[NH+]([O-])c2c(Cl)cncc2Cl)c2c1oc1ccc(C(F)(F)F)cc12 (stereo unspecified)	272 °C
Cc1ccc2c3c(ccc2n1)OC[C@H](CNCCCc1csc2ccc(F)cc12)O3	117 to 120 °C
CC(C)(C)Nc1cc(NC(C)(C)C)nc(N2CCNCC2)n1	135 to 138 °C
CCCCc1nc(C)c(CCC(=S)N(CC)CC)c(=O)n1Cc1ccc(-c2ccccc2-c2nnn[nH]2)cc1	77.8 to 81.1 °C
O=CN1CCN(c2nn(-c3ccccc3)c3ccccc23)CC1	130 to 132 °C
COc1cccc(Oc2c(NS(=O)(=O)c3ccc(C(C)(C)C)cc3)nc(C)nc2OCCO)c1	139 °C
CCN1CCCCC1CNS(=O)(=O)c1ccc(Nc2ccnc3cc(Cl)ccc23)cc1 (stereo unspecified)	203 to 205 °C
CC(C)(C)c1ccc(S(=O)(=O)C=CSc2ccccc2)cc1	258 °C
Cc1cc(-c2ccc(C(F)(F)F)cc2)nc(S(C)(=O)=O)n1	94 to 97 °C
FC(F)(F)c1ccc(-c2cc(Cl)c3ccccc3n2)cc1	53 to 55 °C
CN1CC(=O)OC2(CCN(CC=CC(=O)Nc3cc4c(Nc5ccc(F)c(Cl)c5)ncnc4cc3OCC3CC3)CC2)C1	125 to 130 °C
O=C(/C=C/C=C/c1cccc2ccccc12)NCCCCCC(=O)NO	143 to 145 °C
c1ccc(C(CCOc2ccc(CCC3=NCCCO3)cc2)(c2ccccc2)c2ccccc2)cc1	60 to 63 °C

Next, values leading:

melting point	Compound
89 to 90 °C	CCOc1nn(-c2ccc(C(F)(F)F)cn2)cc1CCCOc1cc(CCC(=O)O)n(C2CCCCC2)n1
115 to 117 °C	CSC(=NS(=O)(=O)c1ccccc1-c1ccccc1)SC
108 to 109 °C	CCN(CC)C(=O)n1c(SC(F)(F)C(F)F)nc(-c2ccccc2)c1-c1ccccc1
171 to 176 °C	CS(=O)(=O)c1ccc(-c2sc(-c3ccncc3)nc2-c2ccc(F)cc2)cc1
152 °C	C[C@H]1C[C@@H](Oc2cccc(NC(=O)c3ccc(F)cc3Cl)c2)CCN1C (relative stereo)
180 to 181 °C	N#Cc1ccc2[nH]c3ccccc3c2c1
126 to 127 °C	CC(C)(C)OC(=O)CC1CCNC(=O)c2ccccc21 (stereo unspecified)
152 to 154 °C	O=C(O)C(Sc1nc2ccccc2s1)c1ccccc1 (stereo unspecified)
113 to 114 °C	CCOC(=O)Cc1cccc(-c2nc(COc3ccc(C=O)cc3OC)c(C)o2)c1
157 to 158 °C	Cn1cc(CC(=O)O)c(OCCCc2cn(-c3ccc(C(F)(F)F)cn3)nc2C2CCCCC2)n1
115 to 116 °C	O=Cc1ccc(CBr)c2ccccc12
211 to 213 °C	COc1ccc2c(c1)NC1(CCN(C(C)=O)CC1)c1cccn1-2
108 to 110 °C	O=C(c1nc2ccccc2s1)C1CCN(CCc2ccccc2)CC1
79 to 81 °C	COC(=O)c1ccc2c(c1)SCCC2O (stereo unspecified)
76 °C	COc1cc(OC)nc(Oc2cccnc2C=O)n1
135 to 137 °C	CCCC(=O)c1cnc2c(C)cccc2c1Nc1ccccc1OC
131 to 132 °C	O=C(O)CCc1cn(Cc2cccc(C(=O)Nc3cccnc3)c2)nc1-c1ccccc1
157 to 159 °C	COC(=O)c1ccc(-c2n[nH]c3ccccc23)o1
203 to 206 °C	CCCOc1ccccc1-c1ncc(C(=O)O)c(=O)[nH]1

melting point	Compound
255 °C	N#CC1=C(c2ccccc2)Nc2n[nH]cc2C1c1cccc2c1OCCC2 (stereo unspecified)
123 to 126 °C	O=C(c1ccccc1)c1ccc(O)c(Cl)c1Cl
158 to 161 °C	O=C(c1ccccc1)c1cc(Cl)cc2c1S(=O)(=O)CC2C(=O)O (stereo unspecified)
110 to 112 °C	C[C@@H](F)c1nc(N)nc(N[C@@H]2CCOc3ccccc32)n1
213 to 216 °C	O=[N+]([O-])c1ccc(N2CCN(c3ccncc3)CC2)cc1
185 to 186 °C	Cc1ccccc1C(=O)Nc1nc2ccccc2c(=O)n1C
199 °C	O=C1C(=O)N2CCCc3cccc1c32
134 to 136 °C	Nc1ccccc1Cc1nc[nH]n1
149 to 150 °C	CC(=O)NC[C@H]1CN(c2ccc(N3CCC(n4nnnc4Cc4cccs4)CC3)c(F)c2)C(=O)O1
165 to 170 °C	Cc1c(-c2ccccc2)oc2c(S(=O)(=O)Cl)cccc2c1=O
198 °C	CCOC(=O)COc1ccc(-c2nc3ncccc3[nH]2)c(O)c1
142 to 143 °C	COc1ccc(S(=O)(=O)N(Cc2cc(C(C)(C)C)c(O)c(C(C)(C)C)c2)c2cccnc2)cc1
201 to 205 °C	O=S1(=O)N=C(NCCCCc2ccccc2)Nc2cc(Cl)sc21
298 °C	O=C1CCC2C=C(c3cccnc3)C(O)=CC2N1 (stereo unspecified)
182 °C	COc1ncc(NC(=S)NC(=O)c2ccccc2)c(OC)n1
240 to 243 °C	Cc1nc(NC(=O)n2ccnc2)sc1-c1ccnc(CC2CC2)n1
179 to 181 °C	CC1=NN(c2ccc3c(=O)n(CC(C)C)c(CN)c(-c4ccccc4)c3c2)CO1
242 °C	Cc1cccc(C=NNC(=O)c2ccc(O)cc2)c1

Source: a melting point compilation (Tetko et al.; mined from patent text by program, amines drawn as free bases though some values may be those of a salt)
